Test results as given in publication PMC4850841 (Journal of medicinal chemistry, 2013).

Legend:
[1] = tested on: GluN2C/D-containing NMDA receptors; assay: Potentiation of NMDA receptors, results stated jointly for both subtypes; type: cell-based, rat; details: for EC50: read-out: EC50, GluN2C/GluN2D stated jointly, maximally effective concentrations of glutamate and glycine
GluA1 = GluA1 (Rattus norvegicus, UniProt P19490); assay: Two electrode voltage clamp recordings, Xenopus laevis oocytes; type: cell-based; details: co-applied with 100 µM glutamate
GluA1, sequence (P19490 19-907): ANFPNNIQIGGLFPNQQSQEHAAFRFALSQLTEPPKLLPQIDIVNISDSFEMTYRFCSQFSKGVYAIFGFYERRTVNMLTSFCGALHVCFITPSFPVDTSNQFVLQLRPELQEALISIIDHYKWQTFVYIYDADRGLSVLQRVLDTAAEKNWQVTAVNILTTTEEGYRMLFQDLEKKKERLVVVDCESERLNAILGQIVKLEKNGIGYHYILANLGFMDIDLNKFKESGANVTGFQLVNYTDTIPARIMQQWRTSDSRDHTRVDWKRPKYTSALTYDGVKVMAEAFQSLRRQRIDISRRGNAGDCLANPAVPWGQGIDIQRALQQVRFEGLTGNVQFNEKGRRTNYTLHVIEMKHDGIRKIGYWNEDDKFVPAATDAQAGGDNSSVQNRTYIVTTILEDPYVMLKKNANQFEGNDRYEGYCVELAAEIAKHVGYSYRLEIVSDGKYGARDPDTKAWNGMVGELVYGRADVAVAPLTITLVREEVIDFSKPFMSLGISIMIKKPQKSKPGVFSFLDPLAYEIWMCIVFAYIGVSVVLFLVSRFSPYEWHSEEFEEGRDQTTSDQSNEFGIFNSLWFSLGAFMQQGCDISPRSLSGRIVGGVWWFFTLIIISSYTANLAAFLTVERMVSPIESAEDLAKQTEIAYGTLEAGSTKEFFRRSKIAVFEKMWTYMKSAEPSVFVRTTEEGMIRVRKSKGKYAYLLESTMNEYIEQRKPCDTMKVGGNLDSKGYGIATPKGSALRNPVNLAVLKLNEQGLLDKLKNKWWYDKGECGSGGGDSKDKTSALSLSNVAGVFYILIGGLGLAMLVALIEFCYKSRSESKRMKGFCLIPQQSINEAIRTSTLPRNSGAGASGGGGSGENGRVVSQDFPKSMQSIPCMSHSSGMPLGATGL

Structure (SMILES): COc1ccc(OCC2c3ccc(OCc4ccccc4)cc3CCN2C(=O)c2cccc(Cl)c2)cc1 (stereo not drawn) [compound 82, (6-(benzyloxy)-1-((4-methoxyphenoxy)methyl)-3,4-dihydroisoquinolin-2(1H)-yl)(3-chlorophenyl)methanone]
- EC50 [1]: 300 to 400 nM

Structure (SMILES): COc1ccc(OCC2c3cc(OC)c(OC)cc3CCN2C(=O)c2cc(Cl)cc(Cl)c2)cc1 (stereo not drawn) [compound 87, (3,5-dichlorophenyl)(6,7-dimethoxy-1-((4-methoxyphenoxy)methyl)-3,4-dihydroisoquinolin-2(1H)-yl)methanone]
- effect on homomeric GluA1 responses (GluA1): no effects

Structure (SMILES): COc1ccc(OCC2c3cc(OC)c(OC)cc3CCN2C(=O)c2cccc(CCl)c2)cc1 (stereo not drawn) [compound 96, (3-(chloromethyl)phenyl)(6,7-dimethoxy-1-((4-methoxyphenoxy)methyl)-3,4-dihydroisoquinolin-2(1H)-yl)methanone]
- effect on homomeric GluA1 responses (GluA1): no effects

Structure (SMILES): COc1ccc(OCC2c3cc(OC)c(OC)cc3CCN2C(=O)c2cccc(C#N)c2)cc1 (stereo not drawn) [compound 98, 3-(6,7-dimethoxy-1-((4-methoxyphenoxy)methyl)-1,2,3,4-tetrahydroisoquinoline-2-carbonyl)benzonitrile]
- effect on homomeric GluA1 responses (GluA1): no effects

Structure (SMILES): CCOc1ccc(OCC2c3cc(OC)c(OC)cc3CCN2C(=O)c2cccc(Cl)c2)cc1 (stereo not drawn) [compound 100, (3-chlorophenyl)(1-((4-ethoxyphenoxy)methyl)-6,7-dimethoxy-3,4-dihydroisoquinolin-2(1H)-yl)methanone]
- activity on GluN2C- or GluN2D-containing receptors [1]: no detectable activity

Structure (SMILES): CCOc1ccc(OCC2c3cc(OC)c(OC)cc3CCN2C(=O)c2cccc(Br)c2)cc1 (stereo not drawn) [compound 101, (3-bromophenyl)(1-((4-ethoxyphenoxy)methyl)-6,7-dimethoxy-3,4-dihydroisoquinolin-2(1H)-yl)methanone]
- activity on GluN2C- or GluN2D-containing receptors [1]: no detectable activity

Structure (SMILES): COc1ccc(OCC2c3cc4c(cc3CCN2C(=O)c2cccc(Cl)c2)OCO4)cc1 (stereo not drawn) [compound 111, (3-chlorophenyl)(5-((4-methoxyphenoxy)methyl)-7,8-dihydro-[1,3]dioxolo[4,5-g]isoquinolin-6(5H)-yl)methanone]
- effect on homomeric GluA1 responses (GluA1): no effects

Structure (SMILES): COc1ccc(OCC2c3ccc(OC)cc3CCN2C(=O)c2cccc(Cl)c2)cc1 (stereo not drawn) [compound 117, (3-chlorophenyl)(6-methoxy-1-((4-methoxyphenoxy)methyl)-3,4-dihydroisoquinolin-2(1H)-yl)methanone]
- effect on homomeric GluA1 responses (GluA1): no effects

Structure (SMILES): COc1ccc(OCC2c3ccc(OC)cc3CCN2C(=O)c2cccc(Br)c2)cc1 (stereo not drawn) [compound 118, (3-bromophenyl)(6-methoxy-1-((4-methoxyphenoxy)methyl)-3,4-dihydroisoquinolin-2(1H)-yl)methanone]
- effect on homomeric GluA1 responses (GluA1): no effects

Structure (SMILES): COc1ccc(OCC2c3ccc(OC)c(OC)c3CCN2C(=O)c2cccc(Cl)c2)cc1 (stereo not drawn) [compound 120, (3-chlorophenyl)(5,6-dimethoxy-1-((4-methoxyphenoxy)methyl)-3,4-dihydroisoquinolin-2(1H)-yl)methanone]
- activity on GluN2C- or GluN2D-containing receptors [1]: inactive

Structure (SMILES): COc1ccc(OCC2c3ccc(OC)c(OC)c3CCN2C(=O)c2cccc(Br)c2)cc1 (stereo not drawn) [compound 121, (3-bromophenyl)(5,6-dimethoxy-1-((4-methoxyphenoxy)methyl)-3,4-dihydroisoquinolin-2(1H)-yl)methanone]
- activity on GluN2C- or GluN2D-containing receptors [1]: inactive

Structure (SMILES): COc1ccc(OCC2c3cc(C)c(C)cc3CCN2C(=O)c2cccc(Cl)c2)cc1 (stereo not drawn) [compound 122, (3-chlorophenyl)(1-((4-methoxyphenoxy)methyl)-6,7-dimethyl-3,4-dihydroisoquinolin-2(1H)-yl)methanone]
- EC50 [1]: ~1000 nM

Structure (SMILES): COc1ccc(OCC2c3cc(C)c(C)cc3CCN2C(=O)c2cccc(Br)c2)cc1 (stereo not drawn) [compound 123, (3-bromophenyl)(1-((4-methoxyphenoxy)methyl)-6,7-dimethyl-3,4-dihydroisoquinolin-2(1H)-yl)methanone]
- EC50 [1]: ~1000 nM

Structure (SMILES): COc1ccc(SCC2c3cc(OC)c(OC)cc3CCN2C(=O)c2ccccc2)cc1 (stereo not drawn) [compound 127, (6,7-dimethoxy-1-(((4-methoxyphenyl)thio)methyl)-3,4-dihydroisoquinolin-2(1H)-yl)(phenyl)methanone]
- activity on GluN2C- or GluN2D-containing receptors [1]: eliminated activity

Structure (SMILES): COc1cc2c(cc1OC)C(COc1ccc([N+](=O)[O-])cc1)N(C(=O)c1ccccc1)CC2 (stereo not drawn) [compound 128, (6,7-dimethoxy-1-((4-nitrophenoxy)methyl)-3,4-dihydroisoquinolin-2(1H)-yl)(phenyl)methanone]
- activity on GluN2C- or GluN2D-containing receptors [1]: no detectable activity

Structure (SMILES): COc1cc2c(cc1OC)C(COc1ccc([N+](=O)[O-])cc1)N(C(=O)c1cccc(Cl)c1)CC2 (stereo not drawn) [compound 129, (3-chlorophenyl)(6,7-dimethoxy-1-((4-nitrophenoxy)methyl)-3,4-dihydroisoquinolin-2(1H)-yl)methanone]
- activity on GluN2C- or GluN2D-containing receptors [1]: no detectable activity

Structure (SMILES): COc1cc2c(cc1OC)C(COc1ccc([N+](=O)[O-])cc1)N(C(=O)c1cccc(Br)c1)CC2 (stereo not drawn) [compound 130, ((3-bromophenyl)(6,7-dimethoxy-1-((4-nitrophenoxy)methyl)-3,4-dihydroisoquinolin-2(1H)-yl)methanone)]
- activity on GluN2C- or GluN2D-containing receptors [1]: no detectable activity

Structure (SMILES): COc1cc2c(cc1OC)C(COc1ccc(N)cc1)N(C(=O)c1ccccc1)CC2 (stereo not drawn) [compound 131, ((1-((4-aminophenoxy)methyl)-6,7-dimethoxy-3,4-dihydroisoquinolin-2(1H)-yl)(phenyl)methanone)]
- activity on GluN2C- or GluN2D-containing receptors [1]: no detectable activity

Structure (SMILES): COc1cc2c(cc1OC)C(COc1ccc(N)cc1)N(C(=O)c1cccc(Cl)c1)CC2 (stereo not drawn) [compound 132, ((1-((4-aminophenoxy)methyl)-6,7-dimethoxy-3,4-dihydroisoquinolin-2(1H)-yl)(3-chlorophenyl)methanone)]
- activity on GluN2C- or GluN2D-containing receptors [1]: no detectable activity

Structure (SMILES): COc1cc2c(cc1OC)C(COc1ccc(N)cc1)N(C(=O)c1cccc(Br)c1)CC2 (stereo not drawn) [compound 133, ((1-((4-aminophenoxy)methyl)-6,7-dimethoxy-3,4-dihydroisoquinolin-2(1H)-yl)(3-bromophenyl)methanone)]
- activity on GluN2C- or GluN2D-containing receptors [1]: no detectable activity

Structure (SMILES): COc1ccc(OCC2c3cc(OC)c(OC)cc3CCN2C(=O)c2ccc3ccccc3c2)cc1 (stereo not drawn) [compound 138, (6,7-dimethoxy-1-((4-methoxyphenoxy)methyl)-3,4-dihydroisoquinolin-2(1H)-yl)(naphthalen-2-yl)methanone]
- effect on homomeric GluA1 responses (GluA1): no effects

Structure (SMILES): COc1ccc(OCC2c3cc(OC)c(OC)cc3CCN2C(=O)CN2CCOCC2)cc1 (stereo not drawn) [compound 140, 1-(6,7-dimethoxy-1-((4-methoxyphenoxy)methyl)-3,4-dihydroisoquinolin-2(1H)-yl)-2-morpholinoethanone]
- effect on homomeric GluA1 responses (GluA1): no effects

Structure (SMILES): COc1ccc(OCC2c3cc(OC)c(OC)cc3CCN2Cc2ccccc2)cc1 (stereo not drawn) [compound 141, 2-benzyl-6,7-dimethoxy-1-((4-methoxyphenoxy)methyl)-1,2,3,4-tetrahydroisoquinoline]
- activity on GluN2C- or GluN2D-containing receptors [1]: eliminated all activity

Structure (SMILES): COc1ccc(/C=C/C2c3cc(OC)c(OC)cc3CCN2C(=O)c2ccccc2)cc1 (stereo not drawn) [compound 155, (E)-(6,7-dimethoxy-1-(4-methoxystyryl)-3,4-dihydroisoquinolin-2(1H)-yl)(phenyl)methanone]
- effect on homomeric GluA1 responses (GluA1): no effects

Structure (SMILES): COc1ccc(/C=C/C2c3cc(OC)c(OC)cc3CCN2C(=O)c2cccc(Br)c2)cc1 (stereo not drawn) [compound 157, (E)-(3-bromophenyl)(6,7-dimethoxy-1-(4-methoxystyryl)-3,4-dihydroisoquinolin-2(1H)-yl)methanone]
- effect on homomeric GluA1 responses (GluA1): no effects

Structure (SMILES): COc1ccc(/C=C/C2c3ccc(OC)cc3CCN2C(=O)c2cccc(Cl)c2)cc1 (stereo not drawn) [compound 158, (E)-(3-chlorophenyl)(6-methoxy-1-(4-methoxystyryl)-3,4-dihydroisoquinolin-2(1H)-yl)methanone]
- effect on homomeric GluA1 responses (GluA1): no effects

Structure (SMILES): COc1ccc(/C=C/C2c3ccc(OC)cc3CCN2C(=O)c2cccc(Br)c2)cc1 (stereo not drawn) [compound 159, (E)-(3-bromophenyl)(6-methoxy-1-(4-methoxystyryl)-3,4-dihydroisoquinolin-2(1H)-yl)methanone]
- effect on homomeric GluA1 responses (GluA1): no effects

Structure (SMILES): COc1ccc(CCC2c3cc(OC)c(OC)cc3CCN2C(=O)c2cccc(Cl)c2)cc1 (stereo not drawn) [compound 161, (3-chlorophenyl)(6,7-dimethoxy-1-(4-methoxyphenethyl)-3,4-dihydroisoquinolin-2(1H)-yl)methanone]
- effect on homomeric GluA1 responses (GluA1): no effects

Structure (SMILES): COc1ccc(CCC2c3cc(OC)c(OC)cc3CCN2C(=O)c2cccc(Br)c2)cc1 (stereo not drawn) [compound 162, (3-bromophenyl)(6,7-dimethoxy-1-(4-methoxyphenethyl)-3,4-dihydroisoquinolin-2(1H)-yl)methanone]
- effect on homomeric GluA1 responses (GluA1): no effects

Structure (SMILES): COc1ccc(OCC2c3cc(OC)c(OC)cc3CCN2C(=S)Nc2ccccc2)cc1 (stereo not drawn) [compound 211]
- activity on GluN2C- or GluN2D-containing receptors [1]: loss of activity

Structure (SMILES): COc1ccc(OCC2c3cc(OC)c(OC)cc3CCN2C(=S)Nc2cccc(Cl)c2)cc1 (stereo not drawn) [compound 212]
- activity on GluN2C- or GluN2D-containing receptors [1]: loss of activity

Structure (SMILES): COc1ccc(OCC2c3cc(OC)c(OC)cc3CCN2C(=S)Nc2cccc(F)c2)cc1 (stereo not drawn) [compound 213]
- activity on GluN2C- or GluN2D-containing receptors [1]: loss of activity

Structure (SMILES): COc1ccc(OCC2c3cc(OC)c(OC)cc3CCN2C(=S)Nc2cccc(Br)c2)cc1 (stereo not drawn) [compound 214]
- activity on GluN2C- or GluN2D-containing receptors [1]: loss of activity

Structure (SMILES): COc1ccc(OCC2c3cc(OC)c(OC)cc3CCN2C(=S)Nc2cccc(C)c2)cc1 (stereo not drawn) [compound 215]
- activity on GluN2C- or GluN2D-containing receptors [1]: weak potentiating activity

Structure (SMILES): COc1ccc(OCC2c3cc(OC)c(OC)cc3CCN2S(=O)(=O)c2ccccc2)cc1 (stereo not drawn) [compound 216]
- activity on GluN2C- or GluN2D-containing receptors [1]: eliminated all activity

Structure (SMILES): COc1ccc(OCC2c3cc(OC)c(OC)cc3CCN2S(=O)(=O)c2cccc(Cl)c2)cc1 (stereo not drawn) [compound 217]
- activity on GluN2C- or GluN2D-containing receptors [1]: eliminated all activity
